Experimental data from patent US11040040B2, “Methods of treating cancer” (Corvus Pharmaceuticals, Inc., priority 2017, dated 2021).

What was measured:
adenosine signaling = assay: Functional inhibition of adenosine signaling in cancer patients; assay type: in vivo, human
Experimental: (§1) Adenosine signaling via A2A receptor (A2AR) on immune cells suppresses anti-tumor immunity and limits the efficacy of immunotherapy, chemotherapy, CAR-T, and vaccines. […] In embodiments, CD73 expression, CD8 infiltration, TREG distribution, and gene expression signatures are evaluated in serial tumor biopsy specimens.

[1] = tested on: peripheral T cell receptor repertoire; assay: Deep sequencing of TCRb in PBMCs, Morisita Index and clonality; assay type: in vivo, human; settings: subjects with baseline peripheral blood clonality within normal healthy range (<0.2); PBMCs day 0 vs day 28 to 56
Experimental: FIGS. 3A-3C: Peripheral blood mononuclear cells (PBMCs) were collected at day 0 and between day 28 and 56. Deep sequencing of TCRb and Moristia and clonality calculations were performed by Adaptive Biotechnologies (Seattle, Wash., USA). T cell receptor (TCR) repertoire clonality was assessed.
Clonality is a measure of the dominance of specific T cell clones within a sample. It can range from 0-1, with 0 meaning each clone appears only once and 1 meaning the sample has only copies of a single clone. […] Clonality<0.2 is within the normal range, >0.2 means that a few clones dominate the sample. Clonality is conceptually the opposite of diversity. A clonality<0.2 is diverse because there a lot of different clones and the sample is not dominated by one or a few clone.
A Morisita Index score indicates the similarity between two samples. […] The Morisita Index can range from 0-1, with 0 meaning the samples are completely different (no shared clones) and a score of 1 meaning the samples are the same. In embodiments, a Morisita Index score>0.9 means very little change (e.g., within the range of sample to sample variation), while a Morisita Index score<0.9 means there was a change within the sample.

syngeneic tumor models = assay: Syngeneic tumor models in mice, daily treatment; assay type: in vivo; settings: multiple syngeneic tumor models
Experimental: as §1

[2] = Phase 1/1b clinical trial, safety and tolerability (Step 1); assay type: in vivo, human; settings: 48 patients treated in Step 1
From the text: FIG. 5 is an illustration of an exemplary Phase 1/1B clinical trial design.
Expansion cohorts include renal cell and non-small cell lung cancer
FIG. 12 provides a summary of data regarding treatment-related adverse events.
as §1

[3] = tested on: non-small cell lung, melanoma, renal, triple negative breast, and other (bladder, prostate, head and neck, colorectal) tumors; assay: Phase 1/1b clinical trial, clinical activity / tumor regression; assay type: in vivo, human; settings: single agent
Experimental: The waterfall plot includes all subjects from the clinical trial with available data, including all dosing levels and disease indications. CT scans of target lesions were performed prior to treatment and every 8 weeks post-treatment or at optimal time points. Target lesions were measured and the sum of longest dimensions (SLD) calculated. Subjects with regression of target tumor lesions are enriched for CD8 infiltration of tumors at baseline. […] The best change in SLD for each subject is shown in the waterfall plot colored by the percentage of CD8 infiltration in the center of the pre-treatment biopsy sample as measured by immunohistochemistry. […] A cutoff of 1% (rather than 4% for FIG. 1A) was used to classify subjects enriched for CD8 infiltration.
There were five prior regimens including TKIs, mTOR inhibitor and nivolumab. The patient ultimately failed each prior therapy.
as §1

**Q.** Which results are given for Cc1ccc(-c2nc(N)nc3c2nnn3Cc2cccc(COC3CCOC3)n2)o1 (stereo not shown) [CPI-444]?
**A.** inhibition of adenosine signaling (adenosine signaling): functional inhibition of adenosine signaling; Morisita Index (change in peripheral TCR repertoire) [1]: < 0.9; inhibition of tumor growth (syngeneic tumor models): dose-dependent inhibition of tumor growth; Grade 3 or 4 treatment related adverse events [2]: 1; tolerability [2]: well tolerated; clinical activity ([3]; including patients who previously failed anti-PD-1 therapy): Evidence of clinical activity; tumor response (FIG. 6, FIGS. 7A-7B) ([3]; nivolumab refractory renal cancer, five prior regimens including TKIs, mTOR inhibitor and nivolumab): tumor regression
